# Patent US10761088B2, “Method for identifying histone tail proteolysis” (University of Southern California, priority 2016, dated 2020)
# “Also recorded” adds a separate entry of the source.
# Key:
# [1] = system: H3NT proteolysis in OCP-induced cells; assay: H3NT cleavage in OCP-induced cells (Western blot of chromatin with H3CT antibody); assay type: cell-based; conditions: RANKL-induced primary mouse OCP cells; shRNA transduction or 10 nM MMP-9-INI or 1.6 μM C646 for 3 days prior to differentiation; versus control shRNA or DMSO
# recombinant H3 (rH3) = assay: In vitro H3NT cleavage assay using recombinant proteases; assay type: biochemical; conditions: recombinant MMP-9, USP14, USP39 and DIM1 tested (FIG. 1G)
# Text: (§1) To identify the protease responsible for H3NT cleavage observed in preosteoclasts, nuclear extracts from 3-day OCP-induced cells were fractionated by a series of chromatography steps (FIG. 1C). An in vitro H3NT cleavage assay was developed using a recombinant H3 (rH3) substrate and Western blot analysis with the H3CT antibody to track and isolate nuclear fractions containing H3NT protease activity. […] These fractions were combined and fractionated on a Q-sepharose column where, again, H3NT protease activity was largely restricted to two sequential fractions, BR100 and BR200. The fractions were combined for glycerol gradient sedimentation resulting in the final purification of fractions (#3-5) containing H3NT protease activity. […]
# (§2) His-tagged proteins were generated in Rosetta 2 (DE3) pLysS E. coli (Novagen) and purified as previously described (Kim et al. 2008). […] Peptides were incubated with rMMP-9 at seven different concentrations (0, 25, 50, 100, 150, 200, and 250 µM) in cleavage buffer, the reactions stopped by adding 20 mM o-phenanthroline (Sigma) and peptide hydrolysis was measured by adding 5 mM fluorescamine followed by detection at λex 365 nm and λem 450 nm using a Plate Chameleon spectrofluorometer (Hidex). Kinetic parameters were determined by Michaelis-Menten analysis. […]
# [2] = system: Nfatc1, Lif and Xpr1 expression; assay: RT-qPCR of osteoclastogenic genes Nfatc1, Lif and Xpr1 in 3-day OCP cells; assay type: cell-based, mouse; conditions: 3-day OCP-induced cells, with RANKL (FIG. 7B, 14)
# Text: FIGS. 7A-7D. […] Distribution of H3NT-cleaved genes dependent on MMP-9 for activation (light) or repression (black) in 3-day OCP-induced cells (right). […] Enrichments were plotted relative to non-induced control shRNA OCP cells (first column) (y-axis). Star indicates H3NT cleavage.
# FIG. 14. […] RT-qPCR was used to quantitatively measure fold expression changes (y-axis) of the osteoclastogenic genes Nfatc1, Lif and Xpr1 relative to non-induced control after normalization to β-actin expression.
# To broadly examine the association between H3NT cleavage and gene expression, the RNA-Seq data was analyzed for the 1,233 H3NT-cleaved genes identified in control and MMP-9 depleted 3-day OCP-induced cells. […] To further investigate the MMP-9-dependent activation of these genes during osteoclastogenesis, RT-qPCR was performed in OCP cells transduced with a control or MMP-9-specific shRNA, or treated with DMSO control or a selective MMP-9 inhibitor, and cultured with or without RANKL for 3 days. […]
# qPCR was performed using PerfeCta® SYBR Green FastMix (Quanta BIOSCIENCES) and an iCycler IQ5 (Bio-Rad). […] Specificity of amplification was determined by melting curve analysis and all samples were run in triplicate with results averaged.
# [3] = target: T1, H3NT protease activity (MMP-9) of purified fractions #3-5 from 3-day OCP-induced cells (Mus musculus, UniProt P41245); assay: In vitro H3NT cleavage assay of purified nuclear fractions #3-5 with protease inhibitors (rH3 substrate, Western blot with H3CT antibody); assay type: biochemical; conditions: fractions incubated with protease inhibitors, Western blot with H3CT antibody (FIG. 1D, 1E)
# T1 construct: both the pro- and active-forms of MMP-9 were detected in the nuclear compartment of 1-day OCP-induced cells; endogenous in cells; host or cells: primary mouse (C57BL/6) bone-marrow-derived OCP cells induced with RANKL; nuclear extracts / lysates
# Text: as §1, §2
# T1 sequence (P41245 108-730): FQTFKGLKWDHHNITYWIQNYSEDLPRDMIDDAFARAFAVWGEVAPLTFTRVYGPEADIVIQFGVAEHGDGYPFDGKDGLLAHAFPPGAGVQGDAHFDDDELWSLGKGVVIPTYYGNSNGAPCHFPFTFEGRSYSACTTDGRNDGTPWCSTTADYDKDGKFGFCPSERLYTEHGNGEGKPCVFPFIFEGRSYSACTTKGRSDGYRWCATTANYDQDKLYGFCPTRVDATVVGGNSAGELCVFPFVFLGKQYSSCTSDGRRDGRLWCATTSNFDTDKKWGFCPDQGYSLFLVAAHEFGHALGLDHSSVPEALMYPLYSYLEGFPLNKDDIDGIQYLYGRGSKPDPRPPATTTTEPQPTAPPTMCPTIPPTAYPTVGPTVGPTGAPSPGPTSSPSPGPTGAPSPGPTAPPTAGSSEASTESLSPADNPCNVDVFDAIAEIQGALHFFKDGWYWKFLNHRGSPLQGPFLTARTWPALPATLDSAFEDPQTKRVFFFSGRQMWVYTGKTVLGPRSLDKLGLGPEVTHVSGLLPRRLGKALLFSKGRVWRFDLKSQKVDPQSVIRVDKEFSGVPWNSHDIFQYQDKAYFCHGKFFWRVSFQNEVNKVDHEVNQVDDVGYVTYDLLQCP
compound,measurement,setting,value
"CC1=NN(c2ccc(C(=O)O)cc2)C(=O)/C1=C\c1ccc(-c2cc(C)c(C)cc2[N+](=O)[O-])o1 [selective CBP/p300 inhibitor, C646]",H3NT proteolysis / cleavage in OCP-induced cells,[1],sustained impairment of H3NT proteolysis
rMMP-9: His-tagged recombinant MMP-9 (aa1115-730 as printed) purified from E. coli inclusion bodies and refolded,H3NT protease activity of recombinant proteases,recombinant H3 (rH3),possessed H3NT protease activity
CCN(CC)Cc1cc(C)c(N(Cc2ccccc2)S(=O)(=O)c2ccc(OC)cc2)c(C(=O)NO)c1 [selective MMP-9 inhibitor],"Nfatc1, Lif and Xpr1 activation (fold expression, normalized to β-actin)",[2],"significantly impaired Nfatc1, Lif and Xpr1 activation"
same,H3NT proteolysis / cleavage in OCP-induced cells,[1],continuous impairment of H3NT cleavage; also recorded: Ablation of H3NT cleavage
same,H3NT protease activity of purified fractions #3-5,[3],abolished H3NT proteolysis
